Test results from patent US8889854B2, “C-17 bicyclic amines of triterpenoids with HIV maturation inhibitory activity” (priority 2012, dated 2014).

system: recombinant NL4-3 virus (Renilla luciferase in nef, Gag P373S; NLRluc); experiment: HIV Cell Culture Assay (luciferase reporter virus in MT-2 cells); type: cell-based; settings: Renilla, NL43, MT-2 cells infected for 4-5 days with NLRluc recombinants; luciferase activity
Protocol: MT-2 cells and 293T cells were obtained from the NIH AIDS Research and Reference Reagent Program. MT-2 cells were propagated in RPMI 1640 media supplemented with 10% heat inactivated fetal bovine serum, […]. The 293T cells were propagated in DMEM media supplemented with 10% heat inactivated fetal bovine serum (FBS), 100 units/mL penicillin G and 100 μg/mL streptomycin. The proviral DNA clone of NL4-3 was obtained from the NIH AIDS Research and Reference Reagent Program. A recombinant NL4-3 virus, in which a section of the nef gene from NL4-3 was replaced with the Renilla luciferase gene, was used as a reference virus. In addition, residue Gag P373 was converted to P373S. Briefly, the recombinant virus was prepared by transfection of the altered proviral clone of NL4-3. Transfections were performed in 293T cells using LipofectAMINE PLUS from Invitrogen (Carlsbad, Calif.), according to manufacturer's instruction. The virus was titered in MT-2 cells using luciferase enzyme activity as a marker. Luciferase was quantitated using the Dual Luciferase kit from Promega (Madison, Wis.), with modifications to the manufacturer's protocol. The diluted Passive Lysis solution was pre-mixed with the re-suspended Luciferase Assay Reagent and the re-suspended Stop & Glo Substrate (2:1:1 ratio). Fifty (50) μL of the mixture was added to each aspirated well on assay plates and luciferase activity was measured immediately on a Wallac TriLux (Perkin-Elmer). Antiviral activities of inhibitors toward the recombinant virus were quantified by measuring luciferase activity in cells infected for 4-5 days with NLRluc recombinants in the presence serial dilutions of the inhibitor. Table 1 is the key for the data in Table 2.

Structure (SMILES)	EC50 [nM]
C=C(C)[C@@H]1CC[C@]2(NCCN3CC4CCC(C3)O4)CC[C@]3(C)[C@H](CC[C@@H]4[C@@]5(C)CC=C(c6ccc(C(=O)O)cc6)C(C)(C)[C@@H]5CC[C@]43C)[C@@H]12 [Example A2, 4-((1R,3aS,5aR,5bR,7aR,11aS,11bR,13aR,13bR)-3a-((2-(8-oxa-3-azabicyclo[3.2.1]octan-3-yl)ethyl)amino)-5a,5b,8,8,11a-pentamethyl-1-(prop-1-en-2-yl)-2,3,3a,4,5,5a,5b,6,7,7a,8,11,11a,11b,12,13,13a,13b-octadecahydro-1H-cyclopenta[a]chrysen-9-yl)benzoic acid]	71
C=C(C)[C@@H]1CC[C@]2(NCCN3C[C@@H]4C[C@H]3CO4)CC[C@]3(C)[C@H](CC[C@@H]4[C@@]5(C)CC=C(C6=CC7C(C6)C7C(=O)O)C(C)(C)[C@@H]5CC[C@]43C)[C@@H]12 (single isomer, unassigned) [Example B6]	1.42
C=C(C)[C@@H]1CC[C@]2(NCCN3CCC4(C3)CN(S(C)(=O)=O)C4)CC[C@]3(C)[C@H](CC[C@@H]4[C@@]5(C)CC=C(c6ccc(C(=O)O)cc6)C(C)(C)[C@@H]5CC[C@]43C)[C@@H]12 [Example 15, 4-((1R,3aS,5aR,5bR,7aR,11aS,11bR,13aR,13bR)-5a,5b,8,8,11a-pentamethyl-3a-((2-(2-(methylsulfonyl)-2,6-diazaspiro[3.4]octan-6-yl)ethyl)amino)-1-(prop-1-en-2-yl)-2,3,3a,4,5,5a,5b,6,7,7a,8,11,11a,11b,12,13,13a,13b-octadecahydro-1H-cyclopenta[a]chrysen-9-yl)benzoic acid]	1.65
C=C(C)[C@@H]1CC[C@]2(NCCN3C[C@@H]4C[C@H]3CS4(=O)=O)CC[C@]3(C)[C@H](CC[C@@H]4[C@@]5(C)CC=C(C6=CC[C@@H](C(=O)O)CC6)C(C)(C)[C@@H]5CC[C@]43C)[C@@H]12 [Example B8, (S)-4-((1R,3aS,5aR,5bR,7aR,11aS,11bR,13aR,13bR)-3a-((2-((1S,4S)-2,2-dioxido-2-thia-5-azabicyclo[2.2.1]heptan-5-yl)ethyl)amino)-5a,5b,8,8,11a-pentamethyl-1-(prop-1-en-2-yl)-2,3,3a,4,5,5a,5b,6,7,7a,8,11,11a,11b,12,13,13a,13b-octadecahydro-1H-cyclopenta[a]chrysen-9-yl)cyclohex-3-enecarboxylic acid]	1.3
C=C(C)[C@@H]1CC[C@]2(NCCN3C[C@@H]4C[C@H]3CN4)CC[C@]3(C)[C@H](CC[C@@H]4[C@@]5(C)CC=C(c6ccc(C(=O)O)cc6)C(C)(C)[C@@H]5CC[C@]43C)[C@@H]12 [Example 10, 4-((1R,3aS,5aR,5bR,7aR,11aS,11bR,13aR,13bR)-3a-((2-((1S,4S)-2,5-diazabicyclo[2.2.1]heptan-2-yl)ethyl)amino)-5a,5b,8,8,11a-pentamethyl-1-(prop-1-en-2-yl)-2,3,3a,4,5,5a,5b,6,7,7a,8,11,11a,11b,12,13,13a,13b-octadecahydro-1H-cyclopenta[a]chrysen-9-yl)benzoic acid]	1.21
C=C(C)[C@@H]1CC[C@]2(NCCN3C[C@@H]4C[C@H]3CO4)CC[C@]3(C)[C@H](CC[C@@H]4[C@@]5(C)CC=C(C6=CC[C@H](C(=O)O)CC6)C(C)(C)[C@@H]5CC[C@]43C)[C@@H]12 [Example B9, (R)-4-((1R,3aS,5aR,5bR,7aR,11aS,11bR,13aR,13bR)-3a-((2-((1S,4S)-2-oxa-5-azabicyclo[2.2.1]heptan-5-yl)ethyl)amino)-5a,5b,8,8,11a-pentamethyl-1-(prop-1-en-2-yl)-2,3,3a,4,5,5a,5b,6,7,7a,8,11,11a,11b,12,13,13a,13b-octadecahydro-1H-cyclopenta[a]chrysen-9-yl)cyclohex-3-enecarboxylic acid]	1.69
C=C(C)[C@@H]1CC[C@]2(NC(=O)CN3C[C@@H]4C[C@H]3CS4(=O)=O)CC[C@]3(C)[C@H](CC[C@@H]4[C@@]5(C)CC=C(c6ccc(C(=O)O)cc6)C(C)(C)[C@@H]5CC[C@]43C)[C@@H]12 [Example 2, 4-((1R,3aS,5aR,5bR,7aR,11aS,11bR,13aR,13bR)-3a-(2-((1S,4S)-2,2-dioxido-2-thia-5-azabicyclo[2.2.1]heptan-5-yl)acetamido)-5a,5b,8,8,11a-pentamethyl-1-(prop-1-en-2-yl)-2,3,3a,4,5,5a,5b,6,7,7a,8,11,11a,11b,12,13,13a,13b-octadecahydro-1H-cyclopenta[a]chrysen-9-yl)benzoic acid]	1.93
C=C(C)[C@@H]1CC[C@]2(NCCN3C4COCC3COC4)CC[C@]3(C)[C@H](CC[C@@H]4[C@@]5(C)CC=C(c6ccc(C(=O)O)cc6)C(C)(C)[C@@H]5CC[C@]43C)[C@@H]12 [Example A3, 4-((1R,3aS,5aR,5bR,7aR,11aS,11bR,13aR,13bR)-3a-((2-((1R,5R)-3,7-dioxa-9-azabicyclo[3.3.1]nonan-9-yl)ethyl)amino)-5a,5b,8,8,11a-pentamethyl-1-(prop-1-en-2-yl)-2,3,3a,4,5,5a,5b,6,7,7a,8,11,11a,11b,12,13,13a,13b-octadecahydro-1H-cyclopenta[a]chrysen-9-yl)benzoic acid]	83

same assay, conditions: Renilla, NL43, MT-2 cells infected for 4-5 days with NLRluc recombinants; luciferase activity; reported as group A/B

Structure (SMILES)	EC50 [nM]
C=C(C)[C@@H]1CC[C@]2(NC(=O)CN3C[C@@H]4C[C@H]3CN4Cc3ccccc3)CC[C@]3(C)[C@H](CC[C@@H]4[C@@]5(C)CC=C(c6ccc(C(=O)O)cc6)C(C)(C)[C@@H]5CC[C@]43C)[C@@H]12 [Example 3, 4-((1R,3aS,5aR,5bR,7aR,11aS,11bR,13aR,13bR)-3a-(2-((1S,4S)-5-benzyl-2,5-diazabicyclo[2.2.1]heptan-2-yl)acetamido)-5a,5b,8,8,11a-pentamethyl-1-(prop-1-en-2-yl)-2,3,3a,4,5,5a,5b,6,7,7a,8,11,11a,11b,12,13,13a,13b-octadecahydro-1H-cyclopenta[a]chrysen-9-yl)benzoic acid]	< 100
C=C(C)[C@@H]1CC[C@]2(NCCN3C[C@H]4C[C@@H]3CS4(=O)=O)CC[C@]3(C)[C@H](CC[C@@H]4[C@@]5(C)CC=C(c6ccc(C(=O)O)cc6)C(C)(C)[C@@H]5CC[C@]43C)[C@@H]12 [Example 18, 4-((1R,3aS,5aR,5bR,7aR,11aS,11bR,13aR,13bR)-3a-((2-((1R,4R)-2,2-dioxido-2-thia-5-azabicyclo[2.2.1]heptan-5-yl)ethyl)amino)-5a,5b,8,8,11a-pentamethyl-1-(prop-1-en-2-yl)-2,3,3a,4,5,5a,5b,6,7,7a,8,11,11a,11b,12,13,13a,13b-octadecahydro-1H-cyclopenta[a]chrysen-9-yl)benzoic acid]	< 100
C=C(C)[C@@H]1CC[C@]2(NCCN3C[C@H]4CC[C@@H](C3)N4C(=O)OC(C)(C)C)CC[C@]3(C)[C@H](CC[C@@H]4[C@@]5(C)CC=C(c6ccc(C(=O)O)cc6)C(C)(C)[C@@H]5CC[C@]43C)[C@@H]12 [Example 13, 4-((1R,3aS,5aR,5bR,7aR,11aS,11bR,13aR,13bR)-3a-((2-((1R,5S)-8-(tert-butoxycarbonyl)-3,8-diazabicyclo[3.2.1]octan-3-yl)ethyl)amino)-5a,5b,8,8,11a-pentamethyl-1-(prop-1-en-2-yl)-2,3,3a,4,5,5a,5b,6,7,7a,8,11,11a,11b,12,13,13a,13b-octadecahydro-1H-cyclopenta[a]chrysen-9-yl)benzoic acid]	> 100
